Key:
[1] = tested on: epicardial explants from E10.5 hearts; assay: Embryonic epicardial explant cultures; assay type: cell-based, mouse; details: E10.5 explants
Source text: In order to support our in vivo phenotype analyses and assess a direct effect of Tβ4 on developing epicardium, we established epicardial explant cultures from wild-type hearts13. We initially derived epicardial explants from stages E10.5 to E16.5 and postnatal day 1 (P1) neonates, treated with either, Tβ4, with VEGF and FGF7 [59], or a combination of Tβ4 and growth factors. Explants from E10.5 hearts, coincident with the formation of the epicardium, produced extensive outgrowths that differentiated into SMαA- and Tie2-positive cells (FIG. 3 b).

[2] = tested on: Akt (P-Ser 473); assay: Tβ4 treatment of C2C12 myoblast cells, Akt phosphorylation; assay type: cell-based, mouse; details: C2C12 myoblasts, Tβ4 10 ng/ml
Experimental: Western blotting was performed using standard methods (Tris-Tricine 4-20% gradient SDS-PAGE for blotting of Tβ4 or Tβ10 peptides and Tris-glycine SDS-PAGE for all other proteins) using antibodies against Tβ4 (abcam), Tβ10 (Biodesign International), Tie-2 (Santa Cruz), SMαA (Sigma), GAPDH (Chemicon), Caspase-8 (Santa Cruz), Cleaved caspase-3, total Akt and Phospho-Akt (both Cell Signalling Technology).
C2C12 cells were cultured in DMEM containing 10% FBS. Tβ4 (10 ng/ml, mmundiagnostik AG) was added and cells harvested over a time course to assess the degree of phosphorylation (activation) of Akt.

[3] = tested on: adult intact mouse hearts; assay: Gain of function model: Tβ4 administration to intact adult mice (western, immunofluorescence, perfused vessel counts); assay type: in vivo
Experimental: For in vivo studies, Western blotting, immunofluorescence and immunohistochemistry were performed using standard protocols with the following antibodies: Ki67 (Dako Cytomation), SMαA, sarcomeric α-actinin (Sigma), cardiac myosin binding protein C (E. Ehler), CD31/PECAM-1, CD4, CD8b (all BD Pharmingen), Nkx2.5, VEGF, Tie-2 (all Santa Cruz), GAPDH, Tbx18 (both Chemicon), Isl-1 (clone 39.4D5, Developmental Studies Hybridoma Bank), Tbx18, TNFα, IL-6, IL-10, GFP (full length—detects EYFP), MCP1, cTnT, F4/80, CD45, MPO, (all abcam), Living colours Av peptide, polyclonal and mouse monoclonal JL-8 antibodies (detect EYFP, Clontech) Cx43 (Zymed) and Raldh2 (gift of P. McCaffery). Images were acquired using either a Zeiss Axiolmager with ApoTome or a Zeiss LSM 510 confocal microscope equipped with argon and helium neon lasers using a 63×/1.4 lens.
Wild type (WT) C57B1/6 or Cx40-EGFP [46] male mice (25-30 g) received intraperitoneal injection of Tβ4 (150 μg in 0.1 ml PBS) or vehicle (0.1 ml PBS) every 2 days for up to 1 week or every 3 days for up to 4 weeks. Doses were based on previous studies. WT hearts were harvested after 2, 4, 7, 14 and 28 days and bisected transversely; the apex was snap frozen for protein preparation and the remaining tissue was fixed in 4% PFA for 2 hours for cryosectioning. Cx40-EGFP hearts were harvested after 7, 14 and 28 days and fixed, as above, for cryosectioning. Prior to harvest at the 28 d time point, Cx40-EGFP mice were intravenously injected with rhodamine-conjugated dextran (70 kDa, Invitrogen) at 2 mg per 20 g body weight, to assess coronary vessel perfusion.
The minimum requirement for Tβ4 to promote EPDC-derived vascular endothelial and smooth muscle cells, was reported previously. To investigate whether Tβ4 could stimulate new vessel growth in vivo, we established a gain of function mouse model by intraperitoneal injection of Tβ4 or vehicle (injections of 150 μg in 0.1 ml PBS every 2 days for first 4 days and every 3 days thereafter) into wild type 8 week old adult mice. Hearts were examined by western analysis and immunohistochemistry (IHC) for vascular markers and evidence of new coronaries at 2, 4, 7, 14 and 28 days post-treatment.
We next determined the presence of adult EPDC-derived cardiomyocytes in vivo, in both a gain of function (intact heart) mouse model, established by intraperitoneal injection of Tβ4 or vehicle (PBS) into wild type adult mice, and an injury model of myocardial infarctions (by coronary artery ligation) in adult mice (n=27 MIs in total), treated with either Tβ4

[4] = intact heart, 2 days of treatment
[5] = intact heart, days 2-7 of treatment, 150 μg i.p.

## Thymosin β4 [Tβ4]
[1]
  numbers of SMαA- and Tie2-positive cells: significantly increased
[2]
  time to Akt activation (P-Ser 473): ≤ 10 min
[3]; Cx40-EGFP mice, rhodamine-dextran, 28 days of treatment
  increase in numbers of perfused coronary vessels vs controls: 1.2 fold
[3]; Cx40-EGFP mice, rhodamine-dextran, 28 days of treatment, n=3
  number of perfused vessels per section +/−SEM: 70.7+/−3.62
[3]; gain of function, intact heart
  Raldh2 up-regulation vs vehicle (western): 6.3 fold
  Tbx18 up-regulation vs vehicle (western): 5.3 fold
[3]; intact heart
  phospho-histone H3 (P-HH3) elevated levels (proliferation): 9.1 fold
[3]; [4]
  PECAM increase vs controls (western): 9.3 fold
  SMαA increase vs controls (western): 9.8 fold
  Tie2 increase vs controls (western): 2 fold
  VEGF increase vs controls (western): 4.8 fold
[3]; [5]
  Isl-1 up-regulation vs vehicle (western): 4.3 fold
  Nkx2.5 up-regulation vs vehicle (western): 2.7 fold

Reference: patent publication US20090081170A1, “Cardiac progenitor cells” (priority 2007, published 2009)
